Data taken from publication PMC12150326 (The Journal of Organic Chemistry, 2025).
Where two headings read alike, the source gives them in different places.

Assays:
Assay type in all cases: cell-based, human
RXF 393 = test system: RXF 393
In short: (§1)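 Five-dose testing in the National Cancer Institute cell screen covered 100 μM to 0.01 μM.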

U251 = test system: U251
In short: as §1

UO-31 = test system: UO-31
In short: as §1

LOX IMVI = test system: LOX IMVI
In short: (§2)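 Read-out: total growth inhibition (TGI) from a five-dose NCI-60 run spanning 0.01–100 μM. These TGI profiles were then compared by COMPARE analysis with those of reference tubulin-binding agents.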

UACC-62 = test system: UACC-62
In short: as §2

BT-549 = test system: BT-549
In short: as §1

MOLT-4 = test system: MOLT-4
In short: as §1

CCRF-CEM = test system: CCRF-CEM
In short: as §2

SF-539 = test system: SF-539
In short: as §1

OVCAR-8 = test system: OVCAR-8
In short: as §1

UACC-257 = test system: UACC-257
In short: as §1

SNB-19 = test system: SNB-19
In short: as §2

K-562 = test system: K-562
In short: as §1

HCT-15 = test system: HCT-15
In short: as §1

SNB-75 = test system: SNB-75
In short: as §1

HS 578T = test system: HS 578T
In short: as §1

OVCAR-5 = test system: OVCAR-5
In short: as §1

T-47D = test system: T-47D
In short: as §1

RPMI-8226 = test system: RPMI-8226
In short: as §1

M14 = test system: M14
In short: as §1

CAKI-1 = test system: CAKI-1
In short: as §1

TK-10 = test system: TK-10
In short: as §2

786-0 = test system: 786-0
In short: as §1

MDA-MB-435 = test system: MDA-MB-435
In short: as §2

SW-620 = test system: SW-620
In short: as §1

NCI/ADR-RES = test system: NCI/ADR-RES
In short: as §1

HCC-2998 = test system: HCC-2998
In short: as §1

COc1cc(C)c(-c2ccc(=O)c(OC)cc2C)c(OC)c1OC (single isomer, unassigned) [(aS)-iso-6] gave a Log10GI50 (RXF 393) of -4.68 Molar, a Log10LC50 (RXF 393) of over -4.00 Molar and a Log10TGI (RXF 393) of -4.12 Molar. It also gave a GI50 (RXF 393; Homo sapiens) of 20.9 µM, a Log10GI50 (RXF 393; […]) of -4.68 Molar and a Log10GI50 (U251) of -4.51 Molar. It also gave a Log10LC50 (U251) of over -4.00 Molar, a Log10TGI (U251) of over -4.00 Molar and a GI50 (U251; Homo sapiens, U-251) of 18.8 µM. The Log10GI50 (U251; […]) was -4.725 Molar, the Log10GI50 (UO-31) was -4.34 Molar and the Log10LC50 (UO-31) was over -4.00 Molar. For the same compound, the Log10TGI (UO-31) was over -4.00 Molar, the GI50 (UO-31; Homo sapiens) was 45.7 µM and the Log10GI50 (UO-31; […]) was -4.34 Molar. It also gave a Log10GI50 (LOX IMVI) of -5.18 Molar, a Log10LC50 (LOX IMVI) of over -4.00 Molar and a Log10TGI (LOX IMVI) of over -4.00 Molar. For the same compound, the GI50 (LOX IMVI; Homo sapiens) was 6.61 µM, the Log10GI50 (LOX IMVI; […]) was -5.18 Molar and the Log10GI50 (UACC-62) was -4.78 Molar. For the same compound, the Log10LC50 (UACC-62) was over -4.00 Molar, the Log10TGI (UACC-62) was over -4.00 Molar and the GI50 (UACC-62; Homo sapiens) was 16.6 µM. For the same compound, the Log10GI50 (UACC-62; […]) was -4.78 Molar, the Log10GI50 (BT-549) was -4.82 Molar and the Log10LC50 (BT-549) was over -4.00 Molar. The Log10TGI (BT-549) was over -4.00 Molar, the GI50 (BT-549; Homo sapiens) was 15.1 µM and the Log10GI50 (BT-549; […]) was -4.82 Molar. It also gave a Log10GI50 (MOLT-4) of -4.44 Molar, a Log10LC50 (MOLT-4) of over -4.00 Molar and a Log10TGI (MOLT-4) of over -4.00 Molar. It also gave a GI50 (MOLT-4; Homo sapiens) of 36.3 µM, a Log10GI50 (MOLT-4; […]) of -4.44 Molar and a Log10GI50 (CCRF-CEM) of -4.53 Molar. The Log10LC50 (CCRF-CEM) was over -4.00 Molar, the Log10TGI (CCRF-CEM) was over -4.00 Molar and the GI50 (CCRF-CEM; Homo sapiens) was 29.5 µM. For the same compound, the Log10GI50 (CCRF-CEM; […]) was -4.53 Molar, the Log10GI50 (SF-539) was -4.59 Molar and the Log10LC50 (SF-539) was over -4.00 Molar. For the same compound, the Log10TGI (SF-539) was over -4.00 Molar, the GI50 (SF-539; Homo sapiens) was 29.5 µM and the Log10GI50 (SF-539; […]) was -4.53 Molar. The Log10GI50 (OVCAR-8) was -4.45 Molar, the Log10LC50 (OVCAR-8) was over -4.00 Molar and the Log10TGI (OVCAR-8) was over -4.00 Molar. It also gave a GI50 (OVCAR-8; Homo sapiens) of 35.5 µM, a Log10GI50 (OVCAR-8; […]) of -4.45 Molar and a Log10GI50 (UACC-257) of -4.15 Molar. The Log10LC50 (UACC-257) was over -4.00 Molar, the Log10TGI (UACC-257) was over -4.00 Molar and the GI50 (UACC-257; Homo sapiens) was 70.8 µM. The Log10GI50 (UACC-257; […]) was -4.15 Molar, the Log10GI50 (SNB-19) was -4.53 Molar and the Log10LC50 (SNB-19) was over -4.00 Molar. For the same compound, the Log10TGI (SNB-19) was over -4.00 Molar, the GI50 (SNB-19; Homo sapiens) was 5.37 µM and the Log10GI50 (SNB-19; […]) was -5.27 Molar. It also gave a Log10GI50 (K-562) of -5.30 Molar, a Log10LC50 (K-562) of over -4.00 Molar and a Log10TGI (K-562) of over -4.00 Molar. For the same compound, the GI50 (K-562; Homo sapiens, K562) was 5.01 µM, the Log10GI50 (K-562; […]) was -5.3 Molar and the Log10GI50 (HCT-15) was -4.89 Molar. The Log10LC50 (HCT-15) was over -4.00 Molar, the Log10TGI (HCT-15) was over -4.00 Molar and the GI50 (HCT-15; Homo sapiens) was 12.9 µM. For the same compound, the Log10GI50 (HCT-15; […]) was -4.89 Molar, the Log10GI50 (SNB-75) was -5.27 Molar and the Log10LC50 (SNB-75) was over -4.00 Molar. For the same compound, the Log10TGI (SNB-75) was -4.36 Molar, the GI50 (SNB-75; Homo sapiens) was 30.9 µM and the Log10GI50 (SNB-75; […]) was -4.51 Molar. The Log10GI50 (HS 578T) was -4.80 Molar, the Log10LC50 (HS 578T) was over -4.00 Molar and the Log10TGI (HS 578T) was -4.19 Molar. The GI50 (HS 578T; Homo sapiens) was 15.8 µM, the Log10GI50 (HS 578T; […]) was -4.8 Molar and the Log10GI50 (OVCAR-5) was -4.38 Molar. For the same compound, the Log10LC50 (OVCAR-5) was over -4.00 Molar, the Log10TGI (OVCAR-5) was over -4.00 Molar and the GI50 (OVCAR-5; Homo sapiens) was 41.7 µM. For the same compound, the Log10GI50 (OVCAR-5; […]) was -4.38 Molar, the Log10GI50 (T-47D) was -4.58 Molar and the Log10LC50 (T-47D) was over -4.00 Molar. The Log10TGI (T-47D) was over -4.00 Molar, the GI50 (T-47D; Homo sapiens, T47D) was 26.3 µM and the Log10GI50 (T-47D; […]) was -4.58 Molar. For the same compound, the Log10GI50 (RPMI-8226) was -4.38 Molar, the Log10LC50 (RPMI-8226) was over -4.00 Molar and the Log10TGI (RPMI-8226) was over -4.00 Molar. It also gave a GI50 (RPMI-8226; Homo sapiens) of 41.7 µM, a Log10GI50 (RPMI-8226; […]) of -4.38 Molar and a Log10GI50 (M14) of -4.76 Molar. For the same compound, the Log10LC50 (M14) was over -4.00 Molar, the Log10TGI (M14) was over -4.00 Molar and the GI50 (M14; Homo sapiens) was 17.4 µM. The Log10GI50 (M14; […]) was -4.76 Molar, the Log10GI50 (CAKI-1) was -4.71 Molar and the Log10LC50 (CAKI-1) was over -4.00 Molar. It also gave a Log10TGI (CAKI-1) of over -4.00 Molar, a GI50 (CAKI-1; Homo sapiens) of 19.5 µM and a Log10GI50 (CAKI-1; […]) of -4.71 Molar. For the same compound, the Log10GI50 (TK-10) was over -4.00 Molar, the Log10LC50 (TK-10) was over -4.00 Molar and the Log10TGI (TK-10) was over -4.00 Molar. The GI50 (TK-10; Homo sapiens) was over 100 µM, the Log10GI50 (TK-10; […]) was over -4 Molar and the Log10GI50 (786-0) was -4.33 Molar. It also gave a Log10LC50 (786-0) of over -4.00 Molar, a Log10TGI (786-0) of over -4.00 Molar and a GI50 (786-0; Homo sapiens) of 46.8 µM. The Log10GI50 (786-0; […]) was -4.33 Molar, the Log10GI50 (MDA-MB-435) was -5.46 Molar and the Log10LC50 (MDA-MB-435) was over -4.00 Molar. It also gave a Log10TGI (MDA-MB-435) of -4.81 Molar, a GI50 (MDA-MB-435; Homo sapiens) of 3.47 µM and a Log10GI50 (MDA-MB-435; […]) of -5.46 Molar. The Log10GI50 (SW-620) was -4.55 Molar, the Log10LC50 (SW-620) was over -4.00 Molar and the Log10TGI (SW-620) was over -4.00 Molar. The GI50 (SW-620; Homo sapiens) was 30.9 µM, the Log10GI50 (SW-620; […]) was -4.51 Molar and the Log10GI50 (NCI/ADR-RES) was -4.55 Molar. It also gave a Log10LC50 (NCI/ADR-RES) of over -4.00 Molar, a Log10TGI (NCI/ADR-RES) of over -4.00 Molar and a GI50 (NCI/ADR-RES; Homo sapiens) of 28.2 µM. The Log10GI50 (NCI/ADR-RES; […]) was -4.55 Molar, the Log10GI50 (HCC-2998) was -4.48 Molar and the Log10LC50 (HCC-2998) was over -4.00 Molar. The Log10TGI (HCC-2998) was over -4.00 Molar, the GI50 (HCC-2998; Homo sapiens) was 33.1 µM and the Log10GI50 (HCC-2998; […]) was -4.48 Molar.
